According to patent US20070155730A1, “Benzodiazepine And Benzopiperazine Analog Inhibitors Of Histone Deacetylase” (METHYLGENE, INC., priority 2005, published 2007):

Each compound was assayed against histone deacetylase (HDAC) (assay: Inhibition of Histone Deacetylase Enzymatic Activity). Conditions: substrate Boc-Lys(Ac)-AMC, Fluor-de-Lys developer, 37° C., 20 min; against one or more of HDAC-1 to HDAC-11, SirT1 to SirT7 (isoform not given); read-out: HDAC Inhibitory Activity (IC50).
Format: biochemical
Protocol: The following protocol is used to assay the compounds of the invention. In the assay, the buffer used is 25 mM HEPES, pH 8.0, 137 mM NaCl, 2.7 mM KCl, 1 mM MgCl2 and the substrate is Boc-Lys(Ac)-AMC in a 50 mM stock solution in DMSO. The enzyme stock solution is 4.08 μg/mL in buffer.
The compounds are pre-incubated (2 μl in DMSO diluted to 13 μl in buffer for transfer to assay plate) with enzyme (20 μl of 4.08 μg/mL) for 10 min at room temperature (35 μl pre-incubation volume). The mixture is pre-incubated for 5 min at room temperature. The reaction is started by bringing the temperature to 37° C. and adding 16 μl substrate. Total reaction volume is 50 μl. […] A plate is incubated in the dark for 10 min at room temperature before reading (λEX=360 nm, λEm=470 nm, Cutoff filter at 435 nm).
In the table, “A” indicates inhibitory activity at a concentration of <0.05 μM; “B” indicates inhibitory activity at a concentration >0.05 μM but <0.5 μM, “C” indicates inhibitory activity at >0.5 μM but <2 μM and “D” indicates inhibitory activity at a concentration of >2 μM but <10 μM.

First: COc1ccc(CN2c3ccccc3NC(=O)C2CCCCCC(=O)NO)cc1 (stereo not drawn) [Compound 47a, 6-(1-(4-methoxybenzyl)-1,2,3,4-tetrahydro-3-oxoquinoxalin-2-yl)-N-hydroxyhexanamide]
Second: COc1ccc(CN2c3ccccc3NC(=O)C2CCCCCC(=O)Nc2ccccc2N)cc1 (stereo not drawn) [Compound 47b, 6-(1-(4-methoxybenzyl)-1,2,3,4-tetrahydro-3-oxoquinoxalin-2-yl)-N-(2-aminophenyl)hexanamide]
The IC50 of the first is lower: 50 to 500 nM for the first, 2000 to 10000 nM for the second.

COc1ccc(CN2c3ccccc3NC(=O)C2CCCCCC(=O)Nc2cc(-c3cccs3)ccc2N)cc1 (stereo not drawn) [Compound 49, 6-(1-(4-methoxybenzyl)-1,2,3,4-tetrahydro-3-oxoquinoxalin-2-yl)-N-(2-amino-5-(thiophen-2-yl)phenyl)hexanamide] and Nc1ccccc1NC(=O)c1ccc(CN2c3ccccc3NC(=O)[C@@H]2Cc2cccs2)cc1 [Compound 54c, (S)—N-(2-aminophenyl)-4-((3-oxo-2-(thiophen-2-ylmethyl)-3,4-dihydroquinoxalin-1(2H)-yl)methyl)benzamide] fall in the same range of IC50: 50 to 500 nM for the first, 50 to 500 nM for the second.

First: O=C(NO)c1ccc(CN2c3ccccc3NC(=O)[C@@H]2Cc2cccs2)cc1 [Compound 54a1, 4-(((S)-2,3-Dihydro-2-oxo-3-((thiophen-2-yl)methyl)quinoxalin-4(1H)-yl)methyl)-N-hydroxybenzamide]
Second: O=C(NO)c1ccc(CN2c3ccccc3NC(=O)[C@H]2Cc2cccs2)cc1 [Compound 54a2, 4-(((R)-2,3-Dihydro-2-oxo-3-((thiophen-2-yl)methyl)quinoxalin-4(1H)-yl)methyl)-N-hydroxybenzamide]
The IC50 of the first is higher: 50 to 500 nM for the first, under 50 nM for the second.

O=C1CN(Cc2ccc(C(=O)NO)cc2)c2ccccc2N1 [Compound 54b1, N-hydroxy-4-((3-oxo-3,4-dihydroquinoxalin-1(2H)-yl)methyl)-benzamide] and O=C(NO)c1ccc(CN2c3ccccc3NC(=O)[C@H]2Cc2ccoc2)cc1 [Compound 54b20, (R)-4-((2-(furan-3-ylmethyl)-3-oxo-3,4-dihydroquinoxalin-1(2H)-yl)methyl)-N-hydroxybenzamide] cannot be ordered by IC50: under 50 nM for the first, under 50 nM for the second.

O=C(NO)c1ccc(CN2c3ccccc3NC(=O)[C@H]2Cc2c[nH]c3ccccc23)cc1 [Compound 54b2, (R)-4-((2-((1H-indol-3-yl)methyl)-3-oxo-3,4-dihydroquinoxalin-1(2H)-yl)methyl)-N-hydroxybenzamide] and O=C(NO)c1ccc(CN2c3ccccc3NC(=O)[C@@H]2Cc2c[nH]c3ccccc23)cc1 [Compound 54b3, (S)-4-((2-((1H-indol-3-yl)methyl)-3-oxo-3,4-dihydroquinoxalin-1(2H)-yl)methyl)-N-hydroxybenzamide] cannot be ordered by IC50: under 50 nM for the first, under 50 nM for the second.

O=C(NO)c1ccc(CN2c3ccccc3NC(=O)[C@@H]2Cc2ccccc2)cc1 [Compound 54b4, (S)-4-((2-benzyl-3-oxo-3,4-dihydroquinoxalin-1(2H)-yl)methyl)-N-hydroxybenzamide] and O=C(NO)c1ccc(CN2c3ccccc3NC(=O)[C@H]2Cc2ccccc2)cc1 [Compound 54b5, (R)-4-((2-benzyl-3-oxo-3,4-dihydroquinoxalin-1(2H)-yl)methyl)-N-hydroxybenzamide] cannot be ordered by IC50: under 50 nM for the first, under 50 nM for the second.

O=C(NO)c1ccc(CN2c3ccccc3NC(=O)[C@H]2CCc2ccccc2)cc1 [Compound 54b7, (R)—N-hydroxy-4-((3-oxo-2-phenethyl-3,4-dihydroquinoxalin-1(2H)-yl)methyl)benzamide] and O=C(NO)c1ccc(CN2c3ccccc3NC(=O)[C@H]2Cc2cccnc2)cc1 [Compound 54b21, (R)—N-hydroxy-4-((3-oxo-2-(pyridin-3-ylmethyl)-3,4-dihydroquinoxalin-1(2H)-yl)methyl)benzamide] cannot be ordered by IC50: under 50 nM for the first, under 50 nM for the second.

First: O=C(NO)c1ccc(CN2c3ccccc3NC(=O)[C@H]2CC2CCCCC2)cc1 [Compound 54b8, (R)-4-((2-(cyclohexylmethyl)-3-oxo-3,4-dihydroquinoxalin-1(2H)-yl)methyl)-N-hydroxybenzamide]
Second: O=C(NO)c1ccc(CN2c3ccccc3NC(=O)[C@H]2Cc2cccs2)cc1 [Compound 56a, 4-(((R)-2,3-Dihydro-2-oxo-3-((thiophen-2-yl)methyl)quinoxalin-4(1H)-yl)methyl)-N-hydroxybenzamide]
The IC50 of the first is lower: 50 to 500 nM for the first, 500 to 2000 nM for the second. The first is the more potent here.

CC(C)(C)OC(=O)NCCCC[C@@H]1C(=O)Nc2ccccc2N1Cc1ccc(C(=O)NO)cc1 [Compound 54b9, (R)-tert-butyl 4-(1-(4-(hydroxycarbamoyl)benzyl)-3-oxo-1,2,3,4-tetrahydroquinoxalin-2-yl)butylcarbamate] and CC(C)(C)OC(=O)CC[C@@H]1C(=O)Nc2ccccc2N1Cc1ccc(C(=O)NO)cc1 [Compound 54b12, (R)-tert-butyl 3-(1-(4-(hydroxycarbamoyl)benzyl)-3-oxo-1,2,3,4-tetrahydroquinoxalin-2-yl)propanoate] cannot be ordered by IC50: under 50 nM for the first, under 50 nM for the second.

O=C(NO)c1ccc(CN2c3ccccc3NC(=O)[C@H]2Cc2ccc3ccccc3c2)cc1 [Compound 54b10, (R)—N-hydroxy-4-((2-(naphthalen-2-ylmethyl)-3-oxo-3,4-dihydroquinoxalin-1(2H)-yl)methyl)benzamide] and O=C(NO)c1ccc(CN2c3ccccc3NC(=O)[C@H]2Cc2ccc(F)cc2)cc1 [Compound 54b15, (R)-4-((2-(4-fluorobenzyl)-3-oxo-3,4-dihydroquinoxalin-1(2H)-yl)methyl)-N-hydroxybenzamide] cannot be ordered by IC50: under 50 nM for the first, under 50 nM for the second.

Compared with CC(C)(C)Oc1ccc(C[C@@H]2C(=O)Nc3ccccc3N2Cc2ccc(C(=O)NO)cc2)cc1 [Compound 54b11, (R)-4-((2-(4-tert-butoxybenzyl)-3-oxo-3,4-dihydroquinoxalin-1(2H)-yl)methyl)-N-hydroxybenzamide], O=C(NO)c1ccc(CN2c3ccccc3NC(=O)[C@H]2Cc2ccc(C(F)(F)F)cc2)cc1 [Compound 54b17, (R)-4-((2-(4-trifluoromethylbenzyl)-3-oxo-3,4-dihydroquinoxalin-1(2H)-yl)methyl)-N-hydroxybenzamide] is higher in IC50: under 50 nM for the first, 50 to 500 nM for the second.

Compared with O=C(NO)c1ccc(CN2c3ccccc3NC(=O)[C@H]2Cc2csc3ccccc23)cc1 [Compound 54b13, (R)-4-((2-(benzo[b]thiophen-3-ylmethyl)-3-oxo-3,4-dihydroquinoxalin-1(2H)-yl)methyl)-N-hydroxybenzamide], O=C(NO)c1ccc(CN2c3ccccc3NC(=O)[C@@H]2Cc2csc3ccccc23)cc1 [Compound 54b14, (S)-4-((2-(benzo[b]thiophen-3-ylmethyl)-3-oxo-3,4-dihydroquinoxalin-1(2H)-yl)methyl)-N-hydroxybenzamide] is higher in IC50: under 50 nM for the first, 50 to 500 nM for the second. The first is the more potent here.

O=C(NO)c1ccc(CN2c3ccccc3NC(=O)[C@H]2Cc2cccc(C(F)(F)F)c2)cc1 [Compound 54b19, (R)—N-hydroxy-4-((2-(3-(trifluoromethyl)benzyl)-3-oxo-3,4-dihydroquinoxalin-1(2H)-yl)methyl)benzamide] and Nc1ccc(-c2cccs2)cc1NC(=O)c1ccc(-c2ccc3c(c2)NC(=O)[C@H](Cc2c[nH]c4ccccc24)N3)cc1 [Compound 62, 4-((S)-2-((1H-indol-3-yl)methyl)-1,2,3,4-tetrahydro-3-oxoquinoxalin-6-yl)-N-(2-amino-5-(thiophen-2-yl)phenyl)benzamide] fall in the same range of IC50: 50 to 500 nM for the first, 50 to 500 nM for the second.

Compound O=C(/C=C/c1ccc2c(c1)NC(=O)[C@H](Cc1c[nH]c3ccccc13)N2)NO [Compound 66c, (E)-3-((S)-2-((1H-indol-3-yl)methyl)-1,2,3,4-tetrahydro-3-oxoquinoxalin-6-yl)-N-hydroxyacrylamide] has an IC50 of 500 to 2000 nM.
